Experimental data from patent US20130085105A1, “Transdermal Administration Of Peptides” (The Provost, Fellows and Scholars of the College of Holy …, priority 2010, published 2013).
“And” between values parts separate entries of the source, which are not always exact repeats. Identical values can stand only once. Like-named read-outs stand apart in the source and are kept apart here.

Key:
[1] = Peptide content in upper and lower skin layers after permeation (tape stripping); assay type: in vitro ADME, hairless mice; details: percentage of total applied dose, hairless mouse skin
Method: The quantity of peptide present in the upper SC and lower dermis layers of the hairless mouse skin samples were determined for each concentration of analog tested. To determine analog concentrations in the SC, the skin samples were wiped clean of donor solution, patted dry and stripped twenty times with Sellotape®, using a fresh piece for each stripping. The twenty pieces of Sellotape® were pooled in a 50 ml centrifuge tube and 10 ml of 50/50 (v/v) acetonitrile/0.1M TFA was added. The sample was homogenized at 20,000 rpm for 5 minutes and then filtered. The peptide content was determined using HPLC. To determine peptide content in the dermal layer, the remaining skin sample was cut into fine pieces, homogenized and analyzed as described.

[2] = Solubility of somatostatin fatty-acid salts; assay type: physicochemical; details: 24 hours
Method: The solubilities of Compound A and Compound B oleate were determined in deionized water, phosphate-buffered saline (PBS; pH 7.4) and n-octanol. Analysis was carried out by placing an excess of each salt with 1 ml of the selected solvent into four 4 ml sealed HPLC vials. The samples were allowed to equilibrate at 37° C. for 24 hours with shaking. Each of the four dispersions was then filtered through a 0.2 μm nylon membrane (Pall Gelman, Ann Arbor, Mich., U.S.A.). Prior to HPLC analysis, the n-octanol samples were diluted 1:100 with methanol and the PBS and deionized water samples were diluted 1:10 in de-ionized water. Table 7 lists the solubilities of Compound A and Compound B oleate salts in deionized water, PBS and n-octanol.

[3] = In vitro transdermal permeation, diffusion cell, hairless mouse skin; assay type: in vitro ADME, hairless mice
Description: The abdominal skin from male hairless mice (mice of the HRS strain carrying a mutant Hr gene (hr/hr)) aged 6-8 weeks was cleaned of any subcutaneous fat with blood vessels while maintaining the integrity of the viable epidermis and SC. The excised skin was used immediately after preparation and was not stored prior to use.
(§1) A custom made finite dosing diffusion cell (AGB Scientific, Dublin, Ireland, FIG. 1) based upon and modified from the Keshary-Chien type diffusion cell was used for in vitro permeation studies.
(§2) Three to five diffusion cells were used in each permeation experiment and monitoring was performed over a 48 hour period. The cells were linked in series to a thermostatically controlled circulation bath set at 35° C. to mimic human skin surface temperature. Each cell was placed on a stir-plate set at a defined stirring rate of 1,000 rpm. The surface area for permeation provided by each cell was 3.14 cm^2.
(§3) Data collected from each permeation study included:
(§4) 1) the average maximum flux obtained in 48 hours (Jmax),
(§5) 2) the total absorption characterized as the total weight of peptide delivered transdermally into the receiver compartment over a 48 hour period,
(§6) 3) the lag time to detectable flux which was equivalent to the latest sampling time at which no peptide was detectable by HPLC analysis of the receiver solution, and
(§7) 4) an equivalent 48-hour steady state flux was determined by obtaining the slope of the best-fit line for a plot of cumulative flux per unit area versus time (described by McDaid, D. M. et al., Int. J. Pharm., 133:71-83, 1996).
(§8) Fresh hairless mouse skin samples or fresh or freshly thawed pig skin samples were mounted onto the diffusion cell with the SC topmost and in contact with the donor system. A rubber or plastic ring was placed on top of the skin sample to secure it in position. The combination of the diffusion cell top, the skin and the rubber ring was securely fastened together by means of a threaded cap. A recorded volume of receiver solution was added to the receiver compartment and maintained at 35° C. The receiver solution was 60/40 (v/v) PBS/propylene glycol (pH 7.1). The propylene glycol fraction was used to increase the solubility of the somatostatin-fatty acid salts. Previous work reported by Morgan et al. (J. Pharm. Sci., 87:1213-1218, 1998) has shown that a 50/50 water/propylene glycol receptor solution had no detrimental effect on the barrier integrity of both hairless mouse and porcine skin.
The receiver solution was allowed to equilibrate at 35° C. for 30 minutes. […] A narrow-bore hypodermic needle was used to withdraw 1 ml samples from the receiver compartment via the sampling port; at each sampling time, an equal volume of drug-free receiver solution was immediately added back to the receiver compartment. Samples were analyzed by HPLC.
HPLC determination of peptide content in the receiver solution along with the known surface area of skin used (3.14 cm^2) allowed for calculation of transdermal flux (in units of μg/cm^2/hr) for each time point. Panels 1 and 2 of FIG. 2 show flux […] profiles for the myristate, octanoate, decanoate, linoleate, nonanote, acetate and laurate […]
Once lead candidate somatostatin-fatty acid salts had been selected on the basis of in vitro permeation in a DMSO solution, the effect of different solvents and penetration enhancers on permeation was assessed. The concentration of the donor solution corresponded to 5 mg/ml free base peptide for all experiments and all donor solutions were equilibrated at 37° C. for one hour prior to use. These experiments were carried out using hairless mouse skin and pigskin barriers.

[4] = In vitro transdermal permeation, diffusion cell, pig epidermis; assay type: in vitro ADME, domestic pigs
Method: The viable epidermal layer was removed from the flanks of freshly sacrificed four month-old female domestic pigs. The flank area of each animal was carefully shaved and the upper 200 μm of skin (Meyer, W., et al., Curr. Prob. Dermatol., 7: 39-52, 1978; de Jalón, et al., J. Control. Rel., 75:191-197, 2001) was harvested using an electric dermatome (Robbins Instruments, Chatham, N.J., U.S.A.). Pigskin epidermal specimens were frozen at −18° C. between layers of PBS-soaked tissue paper enclosed in aluminum foil for up to two weeks prior to use in in vitro permeation studies.
as §1, §2, §3, §4, §5, §6, §7, §8
The receiver solution was allowed to equilibrate at 35° C. for 30 minutes. The experiment was initiated by the application of 1 ml of donor solution containing approximately 5 mg free base peptide in DMSO to the skin surface followed by sealing of the donor compartment with Parafilm®. A narrow-bore hypodermic needle was used to withdraw 1 ml samples from the receiver compartment via the sampling port; at each sampling time, an equal volume of drug-free receiver solution was immediately added back to the receiver compartment. Samples were analyzed by HPLC.
HPLC determination of peptide content in the receiver solution along with the known surface area of skin used (3.14 cm^2) allowed for calculation of transdermal flux (in units of μg/cm^2/hr) for each time point. Panels 1 and 2 of FIG. 2 show flux profiles obtained for the oleate salts of Compound A and Compound B in DMSO which far exceeded the flux profiles for the myristate, octanoate, decanoate, linoleate, nonanote, acetate and laurate salts of Compound A as well as the acetate salt of Compound B in DMSO. […]

[5] = Calculation of required transdermal delivery rate in humans (Eqn. 10.5); details: human; skin area of 20 cm^2; Cpss 1 ng/ml (Compound A), 0.5 ng/ml (Compound B, using Compound A parameters)
Method: The values obtained for the intermediate dose of 21 μg/Kg were used to determine the necessary input rate, i.e., steady state flux, required in humans to achieve therapeutic plasma levels as outlined by Lee et al. (Res. Comm. Mol. Path. Pharmacol., 85, 337-346, 1994) in their studies on melatonin. […] As described by Chatterjee et al. (Pharm. Res., 14:1058-1065, 1997), the following equation can be used to predict required delivery rates, assuming transdermal delivery can be treated as an intravenous infusion:
where K0 is the required zero order delivery rate to achieve a therapeutic steady state plasma concentration (Cpss). […] Thus, for a skin area of 20 cm^2, the required steady-state transdermal flux would be 0.45 μg/cm^2/hr. Assuming a therapeutic plasma level of 0.5 ng/ml for Compound B and utilizing the relevant Compound A parameters, a required steady-state flux of 0.23 μg/cm^2/hr was calculated for a skin area of 20 cm^2.

[6] = donor 55% EtOH 40% Water 5% Cineole, 5 mg/ml free base peptide
[7] = donor 55/45 (v/v) EtOH/H2O, approx. 5 mg/ml free base peptide
[8] = donor DMSO, approx. 5 mg/ml free base peptide (4.9 mg/ml Compound A oleate, 5.2 mg/ml Compound A acetate)
[9] = donor DMSO, approx. 5 mg/ml free base peptide (4.9 mg/ml Compound A oleate, 5.2 mg/ml Compound A acetate), 48 hr
[10] = donor propylene glycol, approx. 5 mg/ml free base peptide
[11] = pig epidermis, donor 55% EtOH 40% Water 5% Cineole, 5 mg/ml free base peptide

## CC(C)[C@@H]1NC(=O)[C@H](CCCCN)NC(=O)[C@@H](Cc2c[nH]c3ccccc23)NC(=O)[C@H](Cc2ccc(O)cc2)NC(=O)[C@@H](NC(=O)[C@H](N)Cc2ccc3ccccc3c2)CSSC[C@@H](C(=O)N[C@H](C(N)=O)[C@@H](C)O)NC1=O [Compound A di-oleate, D-2-Nal-c(Cys-Tyr-D-Trp-Lys-Val-Cys)-Thr-NH2]
[1]; 4.9 mg free base in DMSO
  Wt. % delivered: 9.23%
  Wt. % in lower skin layers: 7.63%
  Wt. % in upper skin layers: 20.22%
[1]; 8.9 mg free base in DMSO
  Wt. % delivered: 5.84%
  Wt. % in lower skin layers: 1.09%
  Wt. % in upper skin layers: 49.93%
[2]; deionized water, 37° C., read-out: Solubility DI H2O
  solubility: 35 µg/mL
[2]; n-octanol, 37° C., read-out: Solubility n-Octanol
  solubility: 123000 µg/mL
[2]; pH 7.4, PBS pH 7.4, 37° C., read-out: Solubility PBS
  solubility: 40 µg/mL
[3]; 8.9 mg/ml free base in DMSO
  Jmax: 24.942 μg/cm^2/hr
  Jss: 3.342 μg/cm^2/hr
  Lag Time: 0.5 h
  Total Absorption: 522.82 μg/48 hr
[3]; 55/40/5 ethanol/water/cineole vs 55/45 ethanol/water
  increase in total peptide flux over 48 hours due to cineole: 7.19%
[3]; [6]
  Jmax: 14.100 μg/cm^2/hr
  Jss: 6.359 μg/cm^2/hr
  Lag Time: 2 h
  Total Absorption: 825.35 μg/48 hr
[3]; [7]
  Jmax: 11.343 μg/cm^2/hr
  Jss: 5.871 μg/cm^2/hr
  Lag Time: 2 h
  Total Absorption: 770.02 μg/48 hr
[3]; [8]
  Lag Time: 1.0 h and 1 h
  Total Absorption: 448.52 μg/48 hr
[3]; [9]
  Jmax: 19.887 μg/cm^2/hr
  Jss: 2.858 μg/cm^2/hr
[3]; [10]
  Jmax: 0.366 μg/cm^2/hr
  Jss: 0.318 μg/cm^2/hr
  Lag Time: 24 h
  Total Absorption: 55.17 μg/48 hr
[3]; vs myristate, octanoate, decanoate, linoleate, nonanoate, acetate, laurate salts of Compound A and acetate of Compound B
  flux profile in DMSO compared with other salts: far exceeded
[4]; [11]
  Jmax: 9.019 μg/cm^2/hr
  Jss: 1.407 μg/cm^2/hr
  Lag Time: 1 h
  Total Absorption: 231.09 μg/48 hr

## CC[C@@H]1NC(=O)[C@H](CCCCN)NC(=O)[C@@H](Cc2c[nH]c3ccccc23)NC(=O)[C@H](Cc2ccc(O)cc2)NC(=O)[C@@H](NC(=O)[C@@H](Cc2ccccc2)NC(=O)CN2CCN(CCO)CC2)CSSC[C@@H](C(=O)N[C@H](C(N)=O)[C@@H](C)O)NC1=O [Compound B, [4-(2-hydroxyethyl)]-1-piperazinylacetyl-D-Phe-c(Cys-Tyr-D-Trp-Lys-Abu-Cys)-Thr-NH2]
[5]
  required steady-state transdermal flux: 0.23 μg/cm^2/hr
[4]
  estimated daily systemic delivery across human skin: approximately 2.665 mg
